Laboratory results reported in patent US20250179047A1, “5-[7-(3,4-DIHYDRO-1H-ISOQUINOLINE-2-CARBONYL)-1,2,3,4 TETRAHYDROISOQUINOLIN-6-YL]-1H-PYRROLE-3-CARBOXAMIDE DERIVATIVES, PHARMACEUTICAL COMPOSITIONS CONTAINING THEM AND THEIR USES AS PRO-APOPTOTIC AGENTS” (LES LABORATOIRES SERVIER, priority 2022, published 2025).

Key:
[1] = target: BCL2 D103Y (Homo sapiens, UniProt P10415, D103Y); assay: TR-FRET competitive binding assay, BCL2 D103Y; conditions: Ki determined from IC50, read-out: TR_FRET EKI_Bcl2 D103Y
In short: (§1)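 Ki derived from IC50 (11-point dilution, 520/495 nm emission ratio) for displacing a fluorescein-labelled PUMA peptide (2 or 20 nM). Target was 0.5 nM E. coli-expressed Halo-tagged BCL2 (1-207) or BCLXL (2-196), terbium-labelled on Halo. Incubation 2 h at 23°C in pH 7.5 Hepes with 150 mM NaCl and 5% DMSO.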

[2] = target: BCLXL WT (Homo sapiens (Human), UniProt Q07817); assay: TR-FRET competitive binding assay, BCLXL WT; conditions: for Ki: BCLXL WT, Ki determined from IC50, read-out: TR_FRET EKI BclxL; for TR_FRET EKI BCLxL/WT selectivty ratio: ratio Ki BCLxL / Ki BCL2 WT
In short: as §1

[3] = target: BCL2 WT (Homo sapiens (Human), UniProt P10415); assay: TR-FRET competitive binding assay, BCL2 WT; conditions: Ki determined from IC50, read-out: TR_FRET EKI_Bcl2 WT
In short: as §1

[4] = system: KMS-12-PE Bcl-2 G101V; assay: In vitro cytotoxicity CellTiter-Glo 48 h, KMS-12-PE Bcl-2 G101V; type: cell-based; conditions: for Ratio (G101V/WT): C50 KMS-12-PE Bcl-2 G101V over C50 KMS-12-PE Bcl-2 WT; for IC50: Homo sapiens, KMS-12-PE, 48 h, CellTiter-Glo, C50 = concentration needed to reach 50% of the cellular viability
In short: (§2)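 CTG luminescence read-out; C50 = concentration reaching 50% cellular viability. Cells: KMS-12-PE expressing Bcl-2 WT or G101V (lentiviral, TagRFP-sorted). 11-pt curve, 48 h, 37 °C/5% CO2.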

[5] = system: KMS-12-PE Bcl-2 WT; assay: In vitro cytotoxicity CellTiter-Glo 48 h, KMS-12-PE Bcl-2 WT; type: cell-based; conditions: Homo sapiens, KMS-12-PE, C50 = concentration needed to reach 50% of the cellular viability
In short: as §2

[6] = system: BCL2 G101V; assay: TR-FRET competitive binding assay, BCL2 G101V; set-up: species or system human; conditions: ratio Ki BCL2 G101V / Ki BCL2 WT
In short: as §1

[7] = target: BCL2 G101V (Homo sapiens, UniProt P10415, G101V); assay: TR-FRET competitive binding assay, BCL2 G101V; conditions: BCL2 G101V; Ki determined from IC50; read-out: TR_FRET EKI_Bcl2 G101V
In short: as §1

Chain of BCLXL WT (Q07817 other isoform, or with tags, fused parts or gaps): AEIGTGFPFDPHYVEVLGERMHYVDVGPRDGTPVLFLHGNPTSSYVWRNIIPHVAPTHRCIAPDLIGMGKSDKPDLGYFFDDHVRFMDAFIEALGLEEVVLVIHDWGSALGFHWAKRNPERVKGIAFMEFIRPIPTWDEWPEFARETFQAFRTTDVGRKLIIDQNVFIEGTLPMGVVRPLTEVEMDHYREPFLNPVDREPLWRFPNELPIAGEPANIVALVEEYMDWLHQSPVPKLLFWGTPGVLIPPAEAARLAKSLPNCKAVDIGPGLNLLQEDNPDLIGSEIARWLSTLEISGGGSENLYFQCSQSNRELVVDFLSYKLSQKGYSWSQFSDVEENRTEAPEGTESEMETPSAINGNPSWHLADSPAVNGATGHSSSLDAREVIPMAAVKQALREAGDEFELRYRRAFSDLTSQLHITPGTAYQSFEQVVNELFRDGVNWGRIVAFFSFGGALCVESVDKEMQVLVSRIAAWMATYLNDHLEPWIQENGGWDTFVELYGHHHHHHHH

Compound	Ki [1]	Ki [2]	TR_FRET EKI BCLxL/WT selectivty ratio [2]	Ki [3]	Ratio (G101V/WT) [4]	IC50 [4]	IC50 [5]	TR_FRET EKI G101V/WT selectivty ratio [6]	Ki [7]
Cc1c(N(C(=O)c2cc(-c3cc4c(cc3C(=O)N3Cc5ccccc5C[C@H]3CN3CCCCC3)CN(C(=O)Cc3ccc(CCN5CCC(F)(F)CC5)cc3)CC4)n(C)c2C)c2ccc(O)cc2)cc(C#N)n1C [Example 131, N-(5-cyano-1,2-dimethylpyrrol-3-yl)-5-[2-(2-{4-[2-(4,4-difluoropiperidin-1-yl)ethyl]phenyl}acetyl)-7-{[(3S)-3-(piperidin-1-ylmethyl)-3,4-dihydro-1H-isoquinolin-2-yl]carbonyl}-3,4-dihydro-1H-isoquinolin-6-yl]-N-(4-hydroxyphenyl)-1,2-dimethylpyrrole-3-carboxamide]	0.53 nM	8.7 nM	37.8	0.23 nM	6.759	0.244 µM	0.0361 µM	6.5	1.5 nM
Cc1c(N(C(=O)c2cc(-c3cc4c(cc3C(=O)N3Cc5ccccc5C[C@H]3CN3CCCCC3)CN(C(=O)Cc3ccc(OC(C)(C)CN5CCOCC5)cc3)CC4)n(C)c2C)c2ccc(O)cc2)cc(C#N)n1C [Example 132, N-(5-cyano-1,2-dimethyl-1H-pyrrol-3-yl)-N-(4-hydroxyphenyl)-1,2-dimethyl-5-{2-[2-(4-{[2-methyl-1-(morpholin-4-yl)propan-2-yl]oxy}phenyl)acetyl]-7-[(3S)-3-[(piperidin-1-yl)methyl]-1,2,3,4-tetrahydroisoquinoline-2-carbonyl]-1,2,3,4-tetrahydroisoquinolin-6-yl}-1H-pyrrole-3-carboxamide]	0.37 nM	12 nM	85.7	0.14 nM	7.2727	0.48 µM	0.066 µM	20.4	2.9 nM
Cc1c(N(C(=O)c2cc(-c3cc4c(cc3C(=O)N3Cc5ccccc5C[C@H]3CN3CCCCC3)CN(C(=O)COc3ccccc3)CC4)n(C)c2C)c2ccc(O)cc2)cc(C#N)n1C [Example 133, N-(5-cyano-1,2-dimethyl-1H-pyrrol-3-yl)-N-(4-hydroxyphenyl)-1,2-dimethyl-5-[2-(2-phenoxyacetyl)-7-[(3S)-3-[(piperidin-1-yl)methyl]-1,2,3,4-tetrahydroisoquinoline-2-carbonyl]-1,2,3,4-tetrahydroisoquinolin-6-yl]-1H-pyrrole-3-carboxamide]	0.38 nM	1.9 nM	29.2	0.07 nM	5.59	0.0556 µM	0.01 µM	9.4	0.6 nM
CCN(CC)C[C@@H]1Cc2ccccc2CN1C(=O)c1cc2c(cc1-c1cc(C(=O)N(c3ccc(O)cc3)c3cc(C#N)n(C)c3C)c(C)n1C)CCN(C(=O)Cc1ccc(OCCN3CCOCC3)cc1F)C2 [Example 137, N-(5-cyano-1,2-dimethyl-1H-pyrrol-3-yl)-5-{7-[(3S)-3-[(diethylamino)methyl]-1,2,3,4-tetrahydroisoquinoline-2-carbonyl]-2-(2-{2-fluoro-4-[2-(morpholin-4-yl)ethoxy]phenyl}acetyl)-1,2,3,4-tetrahydroisoquinolin-6-yl}-N-(4-hydroxyphenyl)-1,2-dimethyl-1H-pyrrole-3-carboxamide]	0.16 nM	1.4 nM	23.7	0.06 nM	3.2905	0.0487 µM	0.0148 µM	4.6	0.3 nM
Cc1c(N(C(=O)c2cc(-c3cc4c(cc3C(=O)N3Cc5ccccc5C[C@H]3CN(C)C(C)C)CN(C(=O)Cc3ccc(OCCN(C)C5CC5)cc3)CC4)n(C)c2C)c2ccc(O)cc2)cc(C#N)n1C [Example 138, N-(5-cyano-1,2-dimethyl-pyrrol-3-yl)-5-[2-[2-[4-[2-[cyclopropyl(methyl)amino]ethoxy]phenyl]acetyl]-7-[(3S)-3-[[isopropyl(methyl)amino]methyl]-3,4-dihydro-1H-isoquinoline-2-carbonyl]-3,4-dihydro-1H-isoquinolin-6-yl]-N-(4-hydroxyphenyl)-1,2-dimethyl-pyrrole-3-carboxamide]	0.24 nM	2.2 nM	27.2	0.08 nM	5.4167	0.195 µM	0.036 µM	6.2	0.5 nM
Cc1c(N(C(=O)c2cc(-c3cc4c(cc3C(=O)N3Cc5ccccc5C[C@H]3CN3CCC[C@H](C)C3)CN(C(=O)Cc3ccc(OCCN(C)C5CC5)cc3)CC4)n(C)c2C)c2ccc(O)cc2)cc(C#N)n1C [Example 139, N-(5-cyano-1,2-dimethyl-pyrrol-3-yl)-5-[2-[2-[4-[2-[cyclopropyl(methyl)amino]ethoxy]phenyl]acetyl]-7-[(3S)-3-[[(3S)-3-methyl-1-piperidyl]methyl]-3,4-dihydro-1H-isoquinoline-2-carbonyl]-3,4-dihydro-1H-isoquinolin-6-yl]-N-(4-hydroxyphenyl)-1,2-dimethyl-pyrrole-3-carboxamide]	0.51 nM	5.7 nM	47.5	0.12 nM	5.4762	0.115 µM	0.021 µM	8.3	1 nM
Cc1c(N(C(=O)c2cc(-c3cc4c(cc3C(=O)N3Cc5ccccc5C[C@H]3CN3CCC(C)CC3)CN(C(=O)Cc3ccc(OCCN5CCOCC5)cc3F)CC4)n(C)c2C)c2ccc(O)cc2)cc(C#N)n1C [Example 140]	0.17 nM	2.8 nM	35.9	0.08 nM	6.2044	0.034 µM	0.0055 µM	5.1	0.4 nM
Cc1c(N(C(=O)c2cc(-c3cc4c(cc3C(=O)N3Cc5ccccc5C[C@H]3C)CN(C(=O)Cc3ccc(OCCN5CCOCC5)cc3)CC4)n(C)c2C)c2ccc(O)cc2)cnn1C1CCOCC1 [Example 142, N-(4-hydroxyphenyl)-1,2-dimethyl-N-[5-methyl-1-(oxan-4-yl)pyrazol-4-yl]-5-(7-{[(3R)-3-methyl-3,4-dihydro-1H-isoquinolin-2-yl]carbonyl}-2-(2-{4-[2-(morpholin-4-yl)ethoxy]phenyl}acetyl)-3,4-dihydro-1H-isoquinolin-6-yl)pyrrole-3-carboxamide]	0.31 nM	8.1 nM	62.3	0.13 nM	8.9744	1.4 µM	0.156 µM	10.0	1.3 nM
COCCn1cc(N(C(=O)c2cc(-c3cc4c(cc3C(=O)N3Cc5ccccc5C[C@H]3C)CN(C(=O)Cc3ccc(OCCN5CCOCC5)cc3)CC4)n(C)c2C)c2ccc(O)cc2)cn1 [Example 143, N-(4-hydroxyphenyl)-N-[1-(2-methoxyethyl)pyrazol-4-yl]-1,2-dimethyl-5-(7-{[(3R)-3-methyl-3,4-dihydro-1H-isoquinolin-2-yl]carbonyl}-2-(2-{4-[2-(morpholin-4-yl)ethoxy]phenyl}acetyl)-3,4-dihydro-1H-isoquinolin-6-yl)pyrrole-3-carboxamide]	0.1 nM	3 nM	83.3	0.04 nM	12.604	0.605 µM	0.048 µM	12.2	0.4 nM
Cc1c(C(=O)N(c2ccc(O)cc2)c2cnn(CC(C)C)c2)cc(-c2cc3c(cc2C(=O)N2Cc4ccccc4C[C@H]2C)CN(C(=O)Cc2ccc(OCCN4CCOCC4)cc2)CC3)n1C [Example 144, N-(4-hydroxyphenyl)-1,2-dimethyl-5-(7-{[(3R)-3-methyl-3,4-dihydro-1H-isoquinolin-2-yl]carbonyl}-2-(2-{4-[2-(morpholin-4-yl)ethoxy]phenyl}acetyl)-3,4-dihydro-1H-isoquinolin-6-yl)-N-[1-(2-methylpropyl)pyrazol-4-yl]pyrrole-3-carboxamide]	0.18 nM	7.7 nM	77.0	0.1 nM	12.531	0.307 µM	0.0245 µM	11.0	1.1 nM
